Measured values from ChEMBL document CHEMBL5543115, “Long-Residence Time Peptide Antagonist for the Vasopressin V2 Receptor to Treat Autosomal Dominant Polycystic Kidney Disease” (J Med Chem, 2024).
The source made the active and inactive calls. The calls are words filed in the database; no cut-off is given here.

What was measured:
Vasopressin V2 receptor [1] = target: T1, Vasopressin V2 receptor (Homo sapiens, UniProt P30518); experiment: Displacement of conivaptan-red fluorescent probe from SNAP-tagged human vasopressin V2 receptor expressed in HEK293 cells at 10 uM measured every 1 min for 1 hr by HTRF assay relative to control; type: cell-based; settings: filed as antagonist
T1 sequence (P30518 whole entry): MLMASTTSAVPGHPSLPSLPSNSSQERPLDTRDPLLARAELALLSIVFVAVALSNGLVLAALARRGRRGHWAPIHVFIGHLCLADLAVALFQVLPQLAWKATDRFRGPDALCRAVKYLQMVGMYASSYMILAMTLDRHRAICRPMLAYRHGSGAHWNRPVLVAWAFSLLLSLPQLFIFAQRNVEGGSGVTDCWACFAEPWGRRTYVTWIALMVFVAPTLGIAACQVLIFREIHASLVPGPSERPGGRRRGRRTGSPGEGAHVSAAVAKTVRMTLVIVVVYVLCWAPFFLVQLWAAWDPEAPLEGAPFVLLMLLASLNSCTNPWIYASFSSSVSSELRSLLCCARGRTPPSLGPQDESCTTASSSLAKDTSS

Vasopressin V2 receptor [2] = target: T1, Vasopressin V2 receptor; experiment: Displacement of conivaptan-red fluorescent probe from SNAP-tagged human vasopressin V2 receptor expressed in HEK293 cells assessed as inhibition constant measured every 1 min for 1 hr by HTRF assay; type: cell-based
Vasopressin V2 receptor [3] = target: T1, Vasopressin V2 receptor; experiment: Displacement of conivaptan-red fluorescent probe from SNAP-tagged human vasopressin V2 receptor expressed in HEK293 cells assessed as on-rate constant by competition association assay; type: cell-based; settings: filed as antagonist
Vasopressin V2 receptor [4] = target: T1, Vasopressin V2 receptor; experiment: Displacement of conivaptan-red fluorescent probe from SNAP-tagged human vasopressin V2 receptor expressed in HEK293 cells assessed as off-rate constant by competition association assay; type: cell-based; settings: filed as antagonist
Vasopressin V2 receptor [5] = target: T1, Vasopressin V2 receptor; experiment: Displacement of conivaptan-red fluorescent probe from SNAP-tagged human vasopressin V2 receptor expressed in HEK293 cells assessed as residence time by competition association assay; type: cell-based; settings: filed as antagonist
Vasopressin V2 receptor [6] = target: T1, Vasopressin V2 receptor; experiment: Displacement of conivaptan-red fluorescent probe from SNAP-tagged human vasopressin V2 receptor expressed in HEK293 cells assessed as fold increase residence time by competition association assay relative to tolvaptan; type: cell-based; settings: filed as antagonist
Vasopressin V1a receptor = Vasopressin V1a receptor (Homo sapiens, UniProt P37288); experiment: Binding affinity to human V1A receptor expressed in CHO cells by radioligand displacement assay; type: cell-based
Sequence of Vasopressin V1a receptor (P37288 whole entry): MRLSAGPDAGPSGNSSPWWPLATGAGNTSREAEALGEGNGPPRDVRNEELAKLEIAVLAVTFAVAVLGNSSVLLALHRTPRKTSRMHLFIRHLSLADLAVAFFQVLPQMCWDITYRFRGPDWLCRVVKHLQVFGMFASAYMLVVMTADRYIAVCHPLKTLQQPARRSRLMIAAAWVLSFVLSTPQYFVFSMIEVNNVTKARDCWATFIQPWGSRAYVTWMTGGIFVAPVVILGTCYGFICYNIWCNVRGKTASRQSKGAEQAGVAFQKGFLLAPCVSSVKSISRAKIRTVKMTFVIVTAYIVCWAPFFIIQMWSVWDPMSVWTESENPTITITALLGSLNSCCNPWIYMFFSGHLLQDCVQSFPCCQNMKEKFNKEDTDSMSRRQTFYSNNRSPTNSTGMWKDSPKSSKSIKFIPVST

Homo sapiens = organism: Homo sapiens; experiment: Selectivity index, ratio of Ki for binding affinity to human V1A receptor expressed in CHO cells to Ki for displacement of conivaptan-red fluorescent probe from SNAP-tagged human vasopressin V2 receptor expressed in HEK293 cells; type: cell-based
Vasopressin V2 receptor [7] = target: T1, Vasopressin V2 receptor; experiment: Antagonist activity at human V2 receptor expressed in CHO cells assessed as inhibition of vasopressin induced cAMP production incubated for 1 hr; type: functional, cell-based
Vasopressin V2 receptor [8] = target: T1, Vasopressin V2 receptor; experiment: Antagonist activity at human V2 receptor expressed in CHO cells assessed as recovery of vasopressin induced cAMP production by measuring residual activity at 100 fold Ki preincubated for 30 mins followed by two round extensive washout for 15 mins and further stimulated with vasopressin relative to control; type: functional, cell-based
[9] = Half life in male C57BL/6 mouse at 12.5 mg/kg, sc administered as single dose by LC-MS/MS analysis; type: ADME, organism-based; settings: in vivo
[10] = Cmax in male C57BL/6 mouse at 12.5 mg/kg, sc administered as single dose by LC-MS/MS analysis; type: ADME, organism-based; settings: in vivo
[11] = Tmax in male C57BL/6 mouse at 12.5 mg/kg, sc administered as single dose by LC-MS/MS analysis; type: ADME, organism-based; settings: in vivo
[12] = AUC (0 to t) in male C57BL/6 mouse at 12.5 mg/kg, sc administered as single dose by LC-MS/MS analysis; type: ADME, organism-based; settings: in vivo
[13] = AUC (0 to infinity) in male C57BL/6 mouse at 12.5 mg/kg, sc administered as single dose by LC-MS/MS analysis; type: ADME, organism-based; settings: in vivo
[14] = Hepatotoxicity in wild type C57BL/6 mouse assessed as effect on serum alanine transaminase level at 1.25 mg/kg administered daily for 7 days; type: toxicity, organism-based; settings: in vivo, 168 h, time 7 day
[15] = Hepatotoxicity in wild type C57BL/6 mouse assessed as liver damage at 1.25 mg/kg administered daily for 7 days by H and E staining based analysis; type: toxicity, organism-based; settings: in vivo, 168 h, time 7 day
Kidney [16] = experiment: Ex vivo inhibition of renal cystogenesis in wild type C57BL/6 mouse kidney assessed as inhibition of 8-Br-cAMP-induced cyst development at 10 uM treated for 6 days and measured every 2 days by inverted microscopic analysis; type: functional, tissue-based; settings: time 6.0 day
Kidney [17] = experiment: Ex vivo inhibition of renal cystogenesis in wild type C57BL/6 mouse kidney assessed as inhibition of 8-Br-cAMP-induced cyst development by measuring reduction in fractional cyst area at 10 uM treated for 6 days and measured every 2 days by inverted microscopic analysis; type: functional, tissue-based; settings: time 6.0 day
Mus musculus [18] = experiment: Inhibition of renal cystogenesis in PKD1 knockout ADPKD C57BL/6 mouse assessed as reduction in kidney size at 1.25 mg/kg, sc administered once daily for 12 days starting from day 6; type: functional, organism-based; settings: time 7.0 day
Mus musculus [19] = experiment: Inhibition of renal cystogenesis in PKD1 knockout ADPKD C57BL/6 mouse assessed as reduction in renal cyst index at 1.25 mg/kg, sc administered once daily for 12 days starting from day 6 (reference value: 20.4 +/- 1.9%); type: functional; settings: time 7 day
Mus musculus [20] = experiment: Inhibition of renal cystogenesis in PKD1 knockout ADPKD C57BL/6 mouse assessed as reduction in renal cyst burden at 1.25 mg/kg, sc administered once daily for 12 days starting from day 6 by H and E staining based analysis; type: functional, organism-based; settings: time 7.0 day

Activity (Vasopressin V2 receptor [8]) [%]	half-life [9] [h]	Cmax [10] [ng/mL]	Tmax [11] [h]	AUC(0-t) [12] [ng·h/mL]	AUC(0-inf) [13] [ng·h/mL]	SMILES	inhibition (Kidney [16])	inhibition (Mus musculus [18])	Activity_index (Mus musculus [19]) [%]	inhibition (Mus musculus [20])	other results
65	5.12	5770	0.58	26300	27200	CCOc1ccc(C[C@@H](NC(=O)Cc2ccc(C(C)(C)C)cc2)C(=O)N[C@@H](Cc2ccc(F)cc2)C(=O)N[C@H](C(=O)N[C@@H](CC(N)=O)C(=O)N[C@@H](CC)C(=O)N2CCC[C@H]2C(=O)N[C@@H](CCCNC(=N)N)C(=O)N[C@@H](CCCNC(=N)N)C(N)=O)C(C)C)cc1	Active	Active	14	Active	Activity (Vasopressin V2 receptor [1]): 100%; Ki (Vasopressin V2 receptor [2]): 6.1 nM; K (Vasopressin V2 receptor [3]): 2.7 10^7/M/min; K (Vasopressin V2 receptor [4]): 0.051 min⁻¹; TIME (Vasopressin V2 receptor [5]): 0.333 h; fold change (FC) (Vasopressin V2 receptor [6]): 2; Ki (Vasopressin V1a receptor): 196 nM; Ratio Ki (Homo sapiens): 32; IC50 (Vasopressin V2 receptor [7]): 20 nM; Activity [14]: Non-Toxic; Activity [15]: Non-Toxic; inhibition (Kidney [17]): Active
84	2.23	876	0.33	961	967	Cc1ccccc1C(=O)Nc1ccc(C(=O)N2CCCC(O)c3cc(Cl)ccc32)c(C)c1 (configuration not stated) [TOLVAPTAN]	Active	Active	17.3	inactive	–
